Assay results: patent publication US6500802B1, “Peptidyl-2-amino-1-hydroxyalkanesulfonic acid cysteine protease inhibitors” (Cephalon, Inc., priority 1997, dated 2002)
Converted amounts (≈) assume the structure as drawn. Structures can show the parent of a compound that is named as a salt. Where a SMILES comes first, the peptide text is derived from it. [ ]: non-standard residue; d: D form. The star is where a group is joined. Gly(cPent) = N[CH](C(=O)O)C1CCCC1; Cbz = O=C(OCc1ccccc1)*; Abu = CC[CH](N)C(=O)O

Molecular target: T1, Recombinant human calpain I (Homo sapiens, UniProt P07384)
T1 construct: made in house
T1 sequence (P07384 1-714): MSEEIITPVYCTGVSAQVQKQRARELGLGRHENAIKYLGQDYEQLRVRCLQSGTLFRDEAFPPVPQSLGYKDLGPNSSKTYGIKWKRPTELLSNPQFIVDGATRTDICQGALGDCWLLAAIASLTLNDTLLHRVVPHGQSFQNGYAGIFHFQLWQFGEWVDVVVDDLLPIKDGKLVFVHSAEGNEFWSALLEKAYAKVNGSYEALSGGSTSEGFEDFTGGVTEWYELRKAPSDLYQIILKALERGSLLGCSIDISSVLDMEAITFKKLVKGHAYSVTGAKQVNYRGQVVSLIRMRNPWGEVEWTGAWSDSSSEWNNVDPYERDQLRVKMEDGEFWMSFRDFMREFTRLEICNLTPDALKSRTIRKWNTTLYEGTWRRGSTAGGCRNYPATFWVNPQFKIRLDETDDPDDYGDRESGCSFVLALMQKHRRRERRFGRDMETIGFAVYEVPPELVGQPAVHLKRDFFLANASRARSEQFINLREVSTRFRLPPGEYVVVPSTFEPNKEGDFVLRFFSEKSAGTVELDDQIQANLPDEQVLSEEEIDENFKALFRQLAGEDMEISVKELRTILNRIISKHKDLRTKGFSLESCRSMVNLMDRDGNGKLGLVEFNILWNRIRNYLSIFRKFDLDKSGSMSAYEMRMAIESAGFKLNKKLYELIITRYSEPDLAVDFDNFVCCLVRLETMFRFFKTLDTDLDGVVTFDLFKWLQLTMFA
T1 sequence (P04632 1-268 partner): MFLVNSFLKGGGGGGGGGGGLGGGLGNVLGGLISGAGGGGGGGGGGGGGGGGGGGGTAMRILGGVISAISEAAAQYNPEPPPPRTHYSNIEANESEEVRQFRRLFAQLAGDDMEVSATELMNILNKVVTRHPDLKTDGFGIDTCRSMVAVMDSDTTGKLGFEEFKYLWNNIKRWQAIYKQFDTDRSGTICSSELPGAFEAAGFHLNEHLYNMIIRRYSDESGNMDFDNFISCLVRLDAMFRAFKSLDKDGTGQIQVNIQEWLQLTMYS
Assay: Inhibition of calpain I activity (Succ-Leu-Tyr-MNA hydrolysis)
Assay type: biochemical
Details: 0.2 mM Succ-Leu-Tyr-MNA, pH 7.5
Procedure: To evaluate inhibitory activity, stock solutions (40 concentrated) of each compound to be tested were prepared in 100% anhydrous DMSO and 5 μl of each inhibitor preparation were aliquoted into each of three wells of a 96-well plate. Recombinant human calpain I, prepared by the of Meyer et al. (Biochem. J. 1996, 314: 511-519), was into assay buffer (i.e., 50 mM Tris, 50 mM NaCl, 1 mM EDTA, 1 mM EGTA, and 5 mM β-mercaptoethanol, pH 7.5, including 0.2 mM Succ-Leu-Tyr-MNA), and 175 μl was aliquoted into the same wells containing the independent inhibitor stocks as well as to positive control wells which contained 5 μl DMSO, but no compound. To start the reaction, 20 μl of 50 mM CaCl2 in assay buffer was added to all wells of the plate, excepting three, which were used as background signal baseline controls. Substrate hydrolysis was monitored every 5 minutes for a total of 30 minutes. Substrate hydrolysis in the absence of inhibitor was linear for up to 15 minutes.
Inhibition of calpain I activity was calculated as the percent decrease in the rate of substrate hydrolysis in the presence of inhibitor relative to the rate in its absence. Comparison between the inhibited and control rates was made within the linear range for substrate hydrolysis. The IC50 values for inhibitors (concentration yielding 50% inhibition) were determined from the percent decrease in rates of substrate hydrolysis in the presence of five to seven different concentrations of the test compound. The results were plotted as percent inhibition versus log inhibitor concentration, and the IC50 was calculated by fitting the data to the four-parameter logistic equation shown below using the program GraphPad Prism (GraphPad Software, Inc., San Diego, Calif.).
In the equation above, the parameters a, b, c, and d are defined as follows: a is % inhibition in the absence of inhibitor, b is the slope, c is the IC50, and d is the % inhibition at an infinite concentration of inhibitor.

**Q.** With O=C(N[C@H](C(=O)NC(Cc1ccccc1)C(O)S(=O)(=O)O)C1CCCC1)OCc1ccccc1 (stereo partly drawn) [Compound 3, Benzyloxycarbonyl-L-cyclopentylglycyl-2-amino-1-hydroxy-3-phenylpropanesulfonic acid sodium Salt] as the compound, how does the IC50 read?
**A.** 15 nM

**Q.** Which IC50 does the source give for CC(C)[C@H](NC(=O)OCc1ccccc1)C(=O)NC(Cc1ccccc1)C(O)S(=O)(=O)O (stereo partly drawn) [Compound 1, Benzyloxycarbonyl-L-valyl-2-amino-1-hydroxy-3-phenylpropanesulfonic acid sodium Salt] here?
**A.** 10 nM

**Q.** With “Tetrahydroisoquinoline-2-carbonyl-L-leucyl-2-amino-1-hydroxy-3-phenylpropanesulfonic acid sodium Salt [Compound 2]” as the compound, how does the IC50 read?
**A.** 32 nM

System: not listed separately
Assay: Solubility of inhibitors in Locke's buffer
Assay type: physicochemical
Details: Locke's buffer pH 7.4; sulfonic acids: buffer added to weighed sample at 20° C.; control aldehydes: by UV absorption of filtrate

**Q.** For CCC(C=O)NC(=O)C(CC(C)C)NC(=O)OCc1ccccc1 (stereo not drawn) [Cbz-Leu-Abu-H] (Cbz-Leu-[Abu]-aldehyde; configuration not given here), which “Solubility” value is on record?
**A.** 210 µg/mL (≈ 628 µM)

**Q.** Which “Solubility” value does the source give for CC(C)C[C@H](NC(=O)N1CCc2ccccc2C1)C(=O)N[C@H](C=O)Cc1ccccc1 [THIQ-2-CO-Leu-Phe-H] here?
**A.** 180 µg/mL (≈ 427 µM)

**Q.** For CC(C)[C@H](NC(=O)OCc1ccccc1)C(=O)N[C@H](C=O)Cc1ccccc1 [Cbz-Val-Phe-H] (Cbz-Val-Phe-aldehyde), which “Solubility” value is on record?
**A.** 180 µg/mL (≈ 471 µM)

**Q.** For O=CC(Cc1ccccc1)NC(=O)C(NC(=O)OCc1ccccc1)C1CCCC1 (stereo not drawn) [Cbz-CyclopentylGly-Phe-H] (Cbz-[Gly(cPent)]-Phe-aldehyde; configuration not given here), which “Solubility” value is on record?
**A.** 80 µg/mL (≈ 196 µM)
